US20020187977A1, “Methods for restoring cognitive function following systemic stress” (priority 2001, published 2002)
Square brackets hold non-standard residues; d marks the D form. Peptide text beside a SMILES is read from it. * marks the point of attachment. ξ: configuration not given here. PhAc = O=C(Cc1ccccc1)*; ξP = O=C(O)C1CCCN1

Legend:
[1] = Preliminary study of oral bioavailability in four volunteers; assay type: in vivo; conditions: humans
[2] = Phase I clinical trials, plasma concentration after oral administration; assay type: in vivo, human; conditions: oral administration of the 20 mg/day dose
Experimental: Fourteen healthy young volunteers were orally administered 20 mg/day of compound 2 for 28 days in two Phase I clinical trials. 34 patients with mild to moderate cognitive disturbance were orally administered doses of up to 30 mg/day of compound 2 for 28 days.
After oral administration of the 20 mg/day dose, peak plasma concentrations of 25-38 ng/mL were observed 15-30 minutes after dosing.

[3] = test system: patients with cognitive disturbances secondary to cerebrovascular and traumatic brain injury; experiment: Four-week open-label Phase II clinical trial of efficacy (MMSE, OCS, CCSE); assay type: in vivo, human; conditions: 10 mg orally t.i.d. for four weeks, 20 patients with mild cognitive disturbance
Experimental: The efficacy of 10 mg of compound 2 administered orally t.i.d. was investigated in a four-week open-label Phase II clinical trial at two centers. A total of 20 patients with cognitive disturbances secondary to cerebrovascular and traumatic brain injury were orally administered compound 2 during a Phase II clinical trial at a dose of 10 mg t.i.d. for a period of four weeks. At study entry, patients fulfilled specific criteria for mild cognitive disturbance.
Improvement on several tests, including the Mini Mental State Evaluation (MMSE) (Folstein et al., Psychiatric Research, 12, 189-198 (1975)), the Overall Clinical Impression Scale (OCS), which is a system developed by the National Institute of Mental Health: 12-CGI Clinical Global Impression ECDEU Assessment Manual for Psychopharmacology, E. Guyo, ed., Rockville Md., (217-222) (1976), and the Cognitive Capacity Screening Exam (CCSE) (Jacobs et al., Annals of Internal Medicine, 86, 40-46 (1977).

With `CCOC(=O)CNC(=O)C1CCCN1C(=O)Cc1ccccc1` (stereo not shown) [compound 2] (PhAc-[ξP]-Gly-OEt) the oral bioavailability [1] was “orally bioavailable”, the peak plasma concentrations [2] was 25 to 38 ng/mL and the “time of peak plasma concentrations after dosing” value [2] was 15 to 30 min. For the same molecule, the “treated patients who met the definition of efficacy response (statistically measured improvement in one or more of the tests by the end of the study)” value [3] was “over 75%”.
